From the supplement of paper PMC10307832

Legend:
Assay in all cases: relative viability (nuclei count vs DMSO), 5 days (fraction); higher = more cells survive
Tipifarnib + Luminespib = compound: Cn1cncc1[C@@](N)(c1ccc(Cl)cc1)c1ccc2c(c1)c(-c1cccc(Cl)c1)cc(=O)n2C [Tipifarnib] + CCNC(=O)c1noc(-c2cc(C(C)C)c(O)cc2O)c1-c1ccc(CN2CCOCC2)cc1 [Luminespib] (partner 0.01 µM)
Method in brief: (§1)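 Medians of duplicate plates are given as relative viability. That measure is the nuclei count in treated wells divided by the count in vehicle wells. Counts were taken on 4× images of lung cancer cell lines in 1536-well plates, 5 days after pin-tool dosing the day after seeding with one drug alone or a fixed anchor-drug dose plus five library-drug doses (not always all listed) in √10 steps.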

Tipifarnib + Lapatinib = compound: Cn1cncc1[C@@](N)(c1ccc(Cl)cc1)c1ccc2c(c1)c(-c1cccc(Cl)c1)cc(=O)n2C [Tipifarnib] + CS(=O)(=O)CCNCc1ccc(-c2ccc3ncnc(Nc4ccc(OCc5cccc(F)c5)c(Cl)c4)c3c2)o1 [Lapatinib] (partner 2 µM)
Method in brief: as §1

Tipifarnib + Decitabine = compound: Cn1cncc1[C@@](N)(c1ccc(Cl)cc1)c1ccc2c(c1)c(-c1cccc(Cl)c1)cc(=O)n2C [Tipifarnib] + Nc1ncn([C@H]2C[C@H](O)[C@@H](CO)O2)c(=O)n1 [Decitabine] (partner 2 µM)
Method in brief: as §1

Tipifarnib + Olaparib = compound: Cn1cncc1[C@@](N)(c1ccc(Cl)cc1)c1ccc2c(c1)c(-c1cccc(Cl)c1)cc(=O)n2C [Tipifarnib] + O=C(c1cc(Cc2n[nH]c(=O)c3ccccc23)ccc1F)N1CCN(C(=O)C2CC2)CC1 [Olaparib] (partner 8 µM)
Method in brief: as §1

| Cell Line | relative viability (Tipifarnib + Luminespib; first compound 0.01 µM) | relative viability (Tipifarnib + Luminespib; first compound 0.03162 µM) | relative viability (Tipifarnib + Luminespib; first compound 0.1 µM) | relative viability (Tipifarnib + Luminespib; first compound 0.3162 µM) | relative viability (Tipifarnib + Luminespib; first compound 1 µM) | relative viability (Tipifarnib + Lapatinib; first compound 0.01 µM) | relative viability (Tipifarnib + Lapatinib; first compound 0.03162 µM) | relative viability (Tipifarnib + Lapatinib; first compound 0.1 µM) | relative viability (Tipifarnib + Lapatinib; first compound 0.3162 µM) | relative viability (Tipifarnib + Lapatinib; first compound 1 µM) | relative viability (Tipifarnib + Decitabine; first compound 0.01 µM) | relative viability (Tipifarnib + Decitabine; first compound 0.03162 µM) | relative viability (Tipifarnib + Decitabine; first compound 0.1 µM) | relative viability (Tipifarnib + Decitabine; first compound 0.3162 µM) | relative viability (Tipifarnib + Decitabine; first compound 1 µM) | relative viability (Tipifarnib + Olaparib; first compound 0.01 µM) | relative viability (Tipifarnib + Olaparib; first compound 0.03162 µM) | relative viability (Tipifarnib + Olaparib; first compound 0.1 µM) | relative viability (Tipifarnib + Olaparib; first compound 0.3162 µM) | relative viability (Tipifarnib + Olaparib; first compound 1 µM) |
| --- | --- | --- | --- | --- | --- | --- | --- | --- | --- | --- | --- | --- | --- | --- | --- | --- | --- | --- | --- | --- |
| NCI-H2087 | 0.185 | 0.154 | 0.165 | 0.141 | 0.152 | 0.934 | 0.493 | 0.475 | 0.404 | 0.344 | 0.348 | 0.262 | 0.259 | 0.205 | 0.206 | 0.538 | 0.499 | 0.341 | 0.281 | 0.275 |
| LU99A | 0.343 | 0.22 | 0.241 | 0.207 | 0.233 | 0.663 | 0.583 | 0.461 | 0.448 | 0.275 | 0.982 | 0.6 | 0.481 | 0.456 | 0.399 | 0.293 | 0.23 | 0.226 | 0.245 | 0.202 |
| NCI-H1355 | 0.76 | 0.61 | 0.525 | 0.532 | 0.433 | 0.999 | 0.871 | 0.746 | 0.67 | 0.516 | 0.372 | 0.397 | 0.328 | 0.317 | 0.321 | 0.801 | 0.706 | 0.55 | 0.559 | 0.507 |
| NCI-H520 | 0.235 | 0.233 | 0.207 | 0.207 | 0.23 | 0.996 | 0.79 | 0.838 | 0.708 | 0.321 | 0.583 | 0.469 | 0.627 | 0.401 | 0.424 | 0.351 | 0.348 | 0.318 | 0.293 | 0.273 |
| NCI-H661 | 0.898 | 0.844 | 0.847 | 0.713 | 0.669 | 0.636 | 0.56 | 0.375 | 0.424 | 0.397 | 0.646 | 0.564 | 0.525 | 0.503 | 0.531 | 0.769 | 0.738 | 0.661 | 0.605 | 0.617 |
| NCI-H650 | 0.888 | 0.697 | 0.61 | 0.57 | 0.442 | 0.719 | 0.837 | 0.599 | 0.434 | 0.345 | 0.352 | 0.33 | 0.341 | 0.251 | 0.305 | 0.543 | 0.394 | 0.376 | 0.334 | 0.303 |
| NCI-H647 | 0.239 | 0.155 | 0.102 | 0.0914 | 0.0951 | 1.17 | 0.792 | 0.693 | 0.668 | 0.176 | 0.453 | 0.305 | 0.261 | 0.185 | 0.186 | 0.566 | 0.472 | 0.39 | 0.142 | 0.142 |
| 201T | 1.05 | 1.06 | 0.991 | 0.972 | 0.938 | 0.988 | 1.05 | 0.965 | 0.947 | 0.866 | 0.875 | 0.841 | 0.88 | 0.783 | 0.816 | 0.851 | 0.86 | 0.83 | 0.733 | 0.793 |
| NCI-H838 | 0.41 | 0.266 | 0.212 | 0.21 | 0.211 | 0.965 | 0.952 | 0.644 | 0.615 | 0.393 | 0.466 | 0.452 | 0.46 | 0.413 | 0.38 | 0.741 | 0.675 | 0.683 | 0.626 | 0.617 |
| SW 1573 | 0.208 | 0.164 | 0.239 | 0.166 | 0.187 | 1.08 | 1.13 | 0.669 | 0.648 | 0.243 | 0.6 | 0.411 | 0.322 | 0.33 | 0.268 | 0.428 | 0.305 | 0.307 | 0.233 | 0.27 |
| PC-14 | 0.221 | 0.2 | 0.149 | 0.132 | 0.131 | 0.346 | 0.327 | 0.242 | 0.226 | 0.15 | 0.223 | 0.183 | 0.221 | 0.189 | 0.145 | 0.278 | 0.206 | 0.279 | 0.176 | 0.176 |
| LK-2 | 0.191 | 0.172 | 0.207 | 0.172 | 0.175 | 0.824 | 0.801 | 0.8 | 0.678 | 0.629 | 0.375 | 0.266 | 0.276 | 0.265 | 0.139 | 0.779 | 0.651 | 0.443 | 0.329 | 0.347 |
| HCC-78 | – | – | – | – | – | 0.661 | 0.633 | 0.514 | 0.54 | 0.37 | 0.786 | 0.756 | 0.719 | 0.664 | 0.514 | 0.93 | 1.01 | 0.863 | 0.758 | 0.636 |
| HCC-366 | – | – | – | – | – | 0.981 | 0.822 | 0.345 | 0.235 | 0.039 | 0.345 | 0.337 | 0.19 | 0.174 | 0.16 | 0.302 | 0.327 | 0.164 | 0.199 | 0.106 |
| LCLC-103H | 0.991 | 0.892 | 0.693 | 0.662 | 0.521 | – | – | – | – | – | 0.757 | 0.672 | 0.785 | 0.635 | 0.673 | 0.81 | 0.759 | 0.785 | 0.708 | 0.739 |
| NCI-H1563 | 0.491 | 0.558 | 0.538 | 0.519 | 0.526 | 1 | 0.956 | 1.02 | 0.891 | 0.879 | – | – | – | – | – | – | – | – | – | – |
| EBC-1 | – | – | – | – | – | 0.199 | 0.214 | 0.2 | 0.188 | 0.215 | – | – | – | – | – | 0.648 | 0.411 | 0.332 | 0.228 | 0.229 |
| Calu-6 | – | – | – | – | – | 1.02 | 0.801 | 0.771 | 0.599 | 0.535 | – | – | – | – | – | 0.532 | 0.498 | 0.514 | 0.502 | 0.466 |
